Publication PMC10175918 (Communications Biology, 2023)

Assays:
Experiment in all cases: TGFα-shedding assay-based GPCR screening with chimeric Gα subunit proteins
Type in all cases: cell-based
348 GPCRs [1] = target: T1, 348 GPCRs (Homo sapiens, UniProt Q9UNW8); conditions: G2A (GPR132); 10µM, Favipiravir 100μM
T1 construct: expressed in transfected cells; host or cells: HEK293A
T1 sequence (Q9UNW8 1-380): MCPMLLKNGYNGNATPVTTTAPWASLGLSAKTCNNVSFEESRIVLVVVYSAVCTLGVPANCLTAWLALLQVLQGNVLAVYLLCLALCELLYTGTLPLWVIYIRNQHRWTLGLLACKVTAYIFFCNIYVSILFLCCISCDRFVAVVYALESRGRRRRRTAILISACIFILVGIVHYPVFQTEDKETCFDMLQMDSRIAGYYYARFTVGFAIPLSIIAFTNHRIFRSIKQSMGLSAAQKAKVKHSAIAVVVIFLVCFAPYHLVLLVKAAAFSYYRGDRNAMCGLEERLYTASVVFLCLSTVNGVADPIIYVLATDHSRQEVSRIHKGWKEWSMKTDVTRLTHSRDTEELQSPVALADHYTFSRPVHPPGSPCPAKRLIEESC

348 GPCRs [2] = target: T2, 348 GPCRs (Homo sapiens, UniProt Q8TCW9); conditions: GPCR PK1 (prokineticin receptor 1), read-out: % GPCR activation compared to TPA
T2 construct: expressed in transfected cells; host or cells: HEK293A
T2 sequence (Q8TCW9 whole entry): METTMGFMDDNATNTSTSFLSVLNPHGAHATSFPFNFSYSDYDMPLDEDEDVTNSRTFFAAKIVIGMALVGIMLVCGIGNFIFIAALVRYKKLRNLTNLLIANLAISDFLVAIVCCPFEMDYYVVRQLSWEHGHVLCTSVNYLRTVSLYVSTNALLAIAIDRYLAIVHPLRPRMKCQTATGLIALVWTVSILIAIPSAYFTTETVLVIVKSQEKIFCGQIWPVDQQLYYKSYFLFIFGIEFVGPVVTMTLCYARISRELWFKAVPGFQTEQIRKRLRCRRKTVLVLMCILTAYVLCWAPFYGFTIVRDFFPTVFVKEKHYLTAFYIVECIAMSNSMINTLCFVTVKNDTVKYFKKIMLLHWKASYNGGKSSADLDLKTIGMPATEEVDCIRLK

348 GPCRs [3] = target: T3, 348 GPCRs (Homo sapiens, UniProt P50391); conditions: NPY4R (neuropeptide Y receptor Y4); 10µM, Favipiravir 100μM; read-out: % GPCR activation compared to TPA
T3 construct: expressed in transfected cells; host or cells: HEK293A
T3 sequence (P50391 whole entry): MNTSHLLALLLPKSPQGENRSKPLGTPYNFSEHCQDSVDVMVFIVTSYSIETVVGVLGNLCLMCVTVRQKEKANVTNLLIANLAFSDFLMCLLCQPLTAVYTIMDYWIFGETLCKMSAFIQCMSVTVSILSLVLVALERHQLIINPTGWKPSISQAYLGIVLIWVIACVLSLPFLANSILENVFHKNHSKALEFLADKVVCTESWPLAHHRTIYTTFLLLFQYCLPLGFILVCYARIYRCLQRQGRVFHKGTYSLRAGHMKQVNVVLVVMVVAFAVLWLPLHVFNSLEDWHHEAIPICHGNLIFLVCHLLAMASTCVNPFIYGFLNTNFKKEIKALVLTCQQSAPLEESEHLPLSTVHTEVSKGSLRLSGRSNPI

348 GPCRs [4] = target: T4, 348 GPCRs (Homo sapiens, UniProt P20309); conditions: GPCR M3 (Muscarinic acetylcholine receptor M3), read-out: % GPCR activation compared to TPA
T4 construct: expressed in transfected cells; host or cells: HEK293A
T4 sequence (P20309 whole entry): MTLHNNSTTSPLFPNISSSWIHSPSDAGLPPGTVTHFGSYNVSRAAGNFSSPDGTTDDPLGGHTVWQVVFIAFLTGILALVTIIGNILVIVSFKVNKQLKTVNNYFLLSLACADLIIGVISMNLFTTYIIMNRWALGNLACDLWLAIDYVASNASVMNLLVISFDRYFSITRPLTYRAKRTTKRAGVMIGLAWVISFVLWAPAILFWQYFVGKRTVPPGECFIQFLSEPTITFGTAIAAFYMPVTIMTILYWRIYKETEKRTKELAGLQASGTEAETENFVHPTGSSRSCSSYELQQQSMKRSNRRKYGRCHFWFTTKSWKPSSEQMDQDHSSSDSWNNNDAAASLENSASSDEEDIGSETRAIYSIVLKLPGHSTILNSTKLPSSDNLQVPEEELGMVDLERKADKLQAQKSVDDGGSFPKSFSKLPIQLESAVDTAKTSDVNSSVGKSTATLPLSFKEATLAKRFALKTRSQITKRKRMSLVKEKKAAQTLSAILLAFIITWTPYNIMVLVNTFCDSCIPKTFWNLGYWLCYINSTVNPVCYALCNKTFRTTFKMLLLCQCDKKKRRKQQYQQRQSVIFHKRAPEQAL

348 GPCRs [5] = target: T5, 348 GPCRs (Homo sapiens, UniProt P55085); conditions: F2RL1 (coagulation factor II (thrombin) receptor-like 1); 10µM, Favipiravir 100μM; read-out: % GPCR activation compared to TPA
T5 construct: expressed in transfected cells; host or cells: HEK293A
T5 sequence (P55085 26-397): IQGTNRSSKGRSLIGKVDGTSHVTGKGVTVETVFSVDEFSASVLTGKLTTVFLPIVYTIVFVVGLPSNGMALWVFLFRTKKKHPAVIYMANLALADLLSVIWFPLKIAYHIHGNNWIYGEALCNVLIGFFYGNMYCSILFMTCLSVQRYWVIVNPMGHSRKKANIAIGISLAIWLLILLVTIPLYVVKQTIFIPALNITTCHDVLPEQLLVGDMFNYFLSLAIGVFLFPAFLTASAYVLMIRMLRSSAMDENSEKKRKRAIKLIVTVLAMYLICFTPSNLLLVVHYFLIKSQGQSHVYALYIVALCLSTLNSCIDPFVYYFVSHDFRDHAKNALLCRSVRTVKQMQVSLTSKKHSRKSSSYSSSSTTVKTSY

348 GPCRs [6] = target: T6, 348 GPCRs (Homo sapiens, UniProt P30968); conditions: GNRHR (gonadotropin releasing hormone receptor); 10µM, Favipiravir 100μM; read-out: % GPCR activation compared to TPA
T6 construct: expressed in transfected cells; host or cells: HEK293A
T6 sequence (P30968 1-328): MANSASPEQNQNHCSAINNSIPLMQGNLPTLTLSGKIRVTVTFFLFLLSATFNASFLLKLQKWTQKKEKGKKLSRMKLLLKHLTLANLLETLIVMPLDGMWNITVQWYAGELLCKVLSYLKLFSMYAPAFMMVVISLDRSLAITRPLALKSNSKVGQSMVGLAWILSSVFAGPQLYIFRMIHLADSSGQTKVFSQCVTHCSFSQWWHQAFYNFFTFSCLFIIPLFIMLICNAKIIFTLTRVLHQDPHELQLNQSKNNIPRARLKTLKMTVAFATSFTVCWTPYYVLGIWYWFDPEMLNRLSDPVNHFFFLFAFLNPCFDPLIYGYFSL

348 GPCRs [7] = target: T7, 348 GPCRs (Homo sapiens, UniProt O14842); conditions: FFA1 (free fatty acid receptor 1); 10µM, Favipiravir 100μM; read-out: % GPCR activation compared to TPA
T7 construct: expressed in transfected cells; host or cells: HEK293A
T7 sequence (O14842 whole entry): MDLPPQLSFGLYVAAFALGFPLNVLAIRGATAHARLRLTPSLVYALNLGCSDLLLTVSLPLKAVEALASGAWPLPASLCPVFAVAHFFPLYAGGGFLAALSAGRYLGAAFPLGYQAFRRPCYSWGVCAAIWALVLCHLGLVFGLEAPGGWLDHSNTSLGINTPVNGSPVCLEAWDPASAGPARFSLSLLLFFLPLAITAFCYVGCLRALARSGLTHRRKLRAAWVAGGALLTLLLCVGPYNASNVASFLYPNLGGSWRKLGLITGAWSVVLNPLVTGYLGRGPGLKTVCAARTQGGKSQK

348 GPCRs [8] = target: T8, 348 GPCRs (Homo sapiens, UniProt Q8TDS7); conditions: MRGPRD (MAS-related GPR, member D); 10µM, Favipiravir 100μM; read-out: % GPCR activation compared to TPA
T8 construct: expressed in transfected cells; host or cells: HEK293A
T8 sequence (Q8TDS7 whole entry): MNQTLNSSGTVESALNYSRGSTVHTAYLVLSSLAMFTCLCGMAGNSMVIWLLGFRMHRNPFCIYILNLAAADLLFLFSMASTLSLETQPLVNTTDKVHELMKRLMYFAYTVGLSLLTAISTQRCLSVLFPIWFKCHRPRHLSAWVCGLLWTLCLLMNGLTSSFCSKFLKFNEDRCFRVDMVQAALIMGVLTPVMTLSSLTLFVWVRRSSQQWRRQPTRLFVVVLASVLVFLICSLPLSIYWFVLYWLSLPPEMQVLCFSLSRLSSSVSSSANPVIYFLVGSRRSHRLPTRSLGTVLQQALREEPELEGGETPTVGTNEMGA

348 GPCRs [9] = target: T9, 348 GPCRs (Homo sapiens, UniProt P30550); conditions: GRPR (gastrin-releasing peptide receptor); 10µM, Favipiravir 100μM; read-out: % GPCR activation compared to TPA
T9 construct: expressed in transfected cells; host or cells: HEK293A
T9 sequence (P30550 whole entry): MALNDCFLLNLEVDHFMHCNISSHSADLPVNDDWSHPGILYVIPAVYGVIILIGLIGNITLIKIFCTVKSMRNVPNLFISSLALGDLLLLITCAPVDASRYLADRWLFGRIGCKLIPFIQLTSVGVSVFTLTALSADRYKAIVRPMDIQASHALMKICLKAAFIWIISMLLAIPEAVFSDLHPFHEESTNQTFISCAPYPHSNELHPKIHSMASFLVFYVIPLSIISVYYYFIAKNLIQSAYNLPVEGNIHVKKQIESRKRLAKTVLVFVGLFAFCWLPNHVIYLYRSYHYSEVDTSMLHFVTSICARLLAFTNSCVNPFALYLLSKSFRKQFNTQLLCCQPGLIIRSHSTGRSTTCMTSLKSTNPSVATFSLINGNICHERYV

348 GPCRs [10] = target: T10, 348 GPCRs (Homo sapiens, UniProt P41594); conditions: GRM5 (glutamate receptor, metabotropic 5); 10µM, Favipiravir 100μM; read-out: % GPCR activation compared to TPA
T10 construct: expressed in transfected cells; host or cells: HEK293A
T10 sequence (P41594 21-1212): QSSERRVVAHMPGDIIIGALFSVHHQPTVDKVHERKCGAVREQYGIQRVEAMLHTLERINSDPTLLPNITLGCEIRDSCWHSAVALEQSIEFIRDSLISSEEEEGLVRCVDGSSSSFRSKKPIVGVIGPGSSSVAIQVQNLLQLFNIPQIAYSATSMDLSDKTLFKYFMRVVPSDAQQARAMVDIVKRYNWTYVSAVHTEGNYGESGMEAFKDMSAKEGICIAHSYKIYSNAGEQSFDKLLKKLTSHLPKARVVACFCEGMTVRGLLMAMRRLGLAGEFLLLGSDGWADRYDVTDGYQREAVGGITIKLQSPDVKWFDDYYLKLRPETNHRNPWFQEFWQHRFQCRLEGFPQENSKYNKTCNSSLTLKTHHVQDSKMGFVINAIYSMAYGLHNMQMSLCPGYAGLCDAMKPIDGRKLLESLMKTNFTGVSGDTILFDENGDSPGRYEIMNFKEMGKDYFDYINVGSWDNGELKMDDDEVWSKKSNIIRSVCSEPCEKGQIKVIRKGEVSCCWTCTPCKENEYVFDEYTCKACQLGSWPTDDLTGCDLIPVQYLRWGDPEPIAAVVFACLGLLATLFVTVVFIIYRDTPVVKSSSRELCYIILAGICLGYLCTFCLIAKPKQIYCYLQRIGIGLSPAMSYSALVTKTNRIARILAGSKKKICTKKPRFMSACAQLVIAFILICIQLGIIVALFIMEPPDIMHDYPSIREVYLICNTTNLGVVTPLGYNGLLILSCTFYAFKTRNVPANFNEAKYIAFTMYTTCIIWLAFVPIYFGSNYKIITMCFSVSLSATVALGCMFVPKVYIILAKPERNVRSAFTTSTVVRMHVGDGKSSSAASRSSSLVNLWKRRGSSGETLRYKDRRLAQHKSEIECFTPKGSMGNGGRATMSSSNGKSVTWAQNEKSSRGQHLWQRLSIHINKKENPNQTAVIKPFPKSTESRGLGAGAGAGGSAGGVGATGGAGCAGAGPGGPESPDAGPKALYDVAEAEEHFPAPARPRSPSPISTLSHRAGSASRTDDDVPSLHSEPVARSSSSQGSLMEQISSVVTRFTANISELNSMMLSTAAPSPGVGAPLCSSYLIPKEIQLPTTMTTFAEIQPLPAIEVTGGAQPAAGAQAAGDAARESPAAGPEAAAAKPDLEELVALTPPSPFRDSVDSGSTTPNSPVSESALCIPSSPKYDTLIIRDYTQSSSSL

348 GPCRs [11] = target: T11, 348 GPCRs (Homo sapiens, UniProt Q7Z602); conditions: GPR141 (G Protein-Coupled Receptor 141); 10µM, Favipiravir 100μM; read-out: % GPCR activation compared to TPA
T11 construct: expressed in transfected cells; host or cells: HEK293A
T11 sequence (Q7Z602 whole entry): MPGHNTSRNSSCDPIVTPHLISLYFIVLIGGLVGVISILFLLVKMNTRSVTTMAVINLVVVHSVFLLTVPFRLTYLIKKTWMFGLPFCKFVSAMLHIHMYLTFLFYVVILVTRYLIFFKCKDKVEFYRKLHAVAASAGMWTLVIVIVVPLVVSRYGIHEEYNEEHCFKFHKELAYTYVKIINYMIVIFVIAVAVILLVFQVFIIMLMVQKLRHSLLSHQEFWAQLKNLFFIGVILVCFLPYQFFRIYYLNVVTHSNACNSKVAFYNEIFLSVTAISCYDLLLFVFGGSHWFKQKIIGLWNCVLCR

348 GPCRs [12] = target: 348 GPCRs (Homo sapiens, UniProt P30989); conditions: NTSR1(CO) (neurotensin receptor 1); 10µM, Favipiravir 100μM; read-out: % GPCR activation compared to TPA
Sequence of 348 GPCRs (Homo sapiens, UniProt P30989) (P30989 whole entry): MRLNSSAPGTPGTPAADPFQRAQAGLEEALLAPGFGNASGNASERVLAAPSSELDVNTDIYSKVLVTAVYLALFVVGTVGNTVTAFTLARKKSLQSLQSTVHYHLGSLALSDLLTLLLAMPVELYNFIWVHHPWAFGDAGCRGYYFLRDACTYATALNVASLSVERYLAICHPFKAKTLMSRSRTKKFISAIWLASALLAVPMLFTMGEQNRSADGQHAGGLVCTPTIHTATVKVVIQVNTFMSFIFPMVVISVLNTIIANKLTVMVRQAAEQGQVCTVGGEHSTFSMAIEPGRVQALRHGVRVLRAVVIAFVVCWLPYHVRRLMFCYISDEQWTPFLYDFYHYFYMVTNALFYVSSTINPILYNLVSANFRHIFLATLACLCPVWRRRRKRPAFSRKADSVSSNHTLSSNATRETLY

348 GPCRs [13] = target: T12, 348 GPCRs (Homo sapiens, UniProt P49019); conditions: HCA3 (hydroxycarboxylic Acid Receptor 3); 10µM, Favipiravir 100μM; read-out: % GPCR activation compared to TPA
T12 construct: expressed in transfected cells; host or cells: HEK293A
T12 sequence (P49019 whole entry): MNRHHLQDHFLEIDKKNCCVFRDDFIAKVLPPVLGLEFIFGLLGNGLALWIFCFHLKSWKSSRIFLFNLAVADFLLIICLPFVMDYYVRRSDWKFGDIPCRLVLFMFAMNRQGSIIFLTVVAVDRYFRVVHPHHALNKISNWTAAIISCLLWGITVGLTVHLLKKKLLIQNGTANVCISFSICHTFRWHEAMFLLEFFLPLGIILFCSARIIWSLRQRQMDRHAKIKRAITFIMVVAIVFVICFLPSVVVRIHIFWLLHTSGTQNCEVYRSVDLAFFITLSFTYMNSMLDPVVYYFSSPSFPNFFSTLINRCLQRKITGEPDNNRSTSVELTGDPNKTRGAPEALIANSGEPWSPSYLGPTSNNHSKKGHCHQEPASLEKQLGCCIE

348 GPCRs [14] = target: T13, 348 GPCRs (Homo sapiens, UniProt P51677); conditions: CCR3 (C-C motif chemokine receptor 3); 10µM, Favipiravir 100μM; read-out: % GPCR activation compared to TPA
T13 construct: expressed in transfected cells; host or cells: HEK293A
T13 sequence (P51677 1-355): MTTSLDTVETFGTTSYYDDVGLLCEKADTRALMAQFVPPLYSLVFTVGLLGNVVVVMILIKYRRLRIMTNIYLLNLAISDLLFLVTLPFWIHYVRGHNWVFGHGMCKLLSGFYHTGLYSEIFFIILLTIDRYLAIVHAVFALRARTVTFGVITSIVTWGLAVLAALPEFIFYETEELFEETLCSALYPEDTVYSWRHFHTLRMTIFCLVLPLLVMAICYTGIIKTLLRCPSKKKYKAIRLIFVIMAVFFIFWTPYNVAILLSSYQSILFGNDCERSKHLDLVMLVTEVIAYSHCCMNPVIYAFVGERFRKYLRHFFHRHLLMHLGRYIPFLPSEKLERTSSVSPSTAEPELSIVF

| % GPCR activation compared to TPA (348 GPCRs [1]) [%] | activation at 10 µM (348 GPCRs [2]; 10µM) [%] | activation at 100 µM (348 GPCRs [3]) [%] | activation at 10 µM (348 GPCRs [4]; 10µM) [%] | activation at 10 µM (348 GPCRs [5]) [%] | activation at 10 µM (348 GPCRs [6]) [%] | activation at 10 µM (348 GPCRs [7]) [%] | activation at 100 µM (348 GPCRs [8]) [%] | activation at 10 µM (348 GPCRs [9]) [%] | activation at 10 µM (348 GPCRs [10]) [%] | activation at 100 µM (348 GPCRs [11]) [%] | activation at 100 µM (348 GPCRs [12]) [%] | activation at 100 µM (348 GPCRs [13]) [%] | activation at 100 µM (348 GPCRs [14]) [%] | activation at 100 µM (348 GPCRs [2]; 100μM) [%] | activation at 100 µM (348 GPCRs [4]; 100μM) [%] | Structure (SMILES) |
| --- | --- | --- | --- | --- | --- | --- | --- | --- | --- | --- | --- | --- | --- | --- | --- | --- |
| -8.135 | -2.68 | -1.48 | 3.5 | 0.132 | -3.48 | -14.2 | -4.53 | -1.56 | 1.65 | -0.309 | -0.341 | -0.178 | 3.06 |  |  | N#C[C@@]1(c2ccc3c(N)ncnn23)O[C@H](CO)[C@@H](O)[C@H]1O [GS441524] |
| 7.4 |  | -2.23 |  | -2.7 | -1.3 | -4.93 | -0.473 | -1.14 | 0.818 | -0.646 | -1.75 | 0.282 | 2.7 | -2.82 | 0.164 | NC(=O)c1nc(F)cnc1O [favipiravir, 6-fluoro-3-hydroxy-2-pyrazinecarboxamide] |
